Legend:
[1] = molecular target: HER2 kinase (Homo sapiens (Human), UniProt P04626); test: Inhibition of HER2 kinase activity (ULight-labeled PolyGT substrate); type: biochemical; settings: HER2 kinase 10 nM, ATP 10 μM, 2 hours
Procedure, shortened: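 HER2 kinase at 10 nM with 10 μM ATP and 100 nM ULight-PolyGT, 5 min enzyme–compound preincubation, then 2 h reaction at room temperature in the dark. Compounds at 11 3-fold concentrations, 2.5 μM top to 0.042 nM, 1% DMSO, duplicates. TR-FRET 665/615 ratio; IC50 from inhibition versus DMSO and no-compound controls.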

[2] = molecular target: EGFR kinase (Homo sapiens (Human), UniProt P00533); test: Inhibition of EGFR kinase activity (ULight-labeled JAK-1 (Tyr1023) peptide substrate); type: biochemical; settings: EGFR kinase 0.35 nM, ATP 150 μM, 2 hours
Sequence of EGFR kinase (P00533 25-1210): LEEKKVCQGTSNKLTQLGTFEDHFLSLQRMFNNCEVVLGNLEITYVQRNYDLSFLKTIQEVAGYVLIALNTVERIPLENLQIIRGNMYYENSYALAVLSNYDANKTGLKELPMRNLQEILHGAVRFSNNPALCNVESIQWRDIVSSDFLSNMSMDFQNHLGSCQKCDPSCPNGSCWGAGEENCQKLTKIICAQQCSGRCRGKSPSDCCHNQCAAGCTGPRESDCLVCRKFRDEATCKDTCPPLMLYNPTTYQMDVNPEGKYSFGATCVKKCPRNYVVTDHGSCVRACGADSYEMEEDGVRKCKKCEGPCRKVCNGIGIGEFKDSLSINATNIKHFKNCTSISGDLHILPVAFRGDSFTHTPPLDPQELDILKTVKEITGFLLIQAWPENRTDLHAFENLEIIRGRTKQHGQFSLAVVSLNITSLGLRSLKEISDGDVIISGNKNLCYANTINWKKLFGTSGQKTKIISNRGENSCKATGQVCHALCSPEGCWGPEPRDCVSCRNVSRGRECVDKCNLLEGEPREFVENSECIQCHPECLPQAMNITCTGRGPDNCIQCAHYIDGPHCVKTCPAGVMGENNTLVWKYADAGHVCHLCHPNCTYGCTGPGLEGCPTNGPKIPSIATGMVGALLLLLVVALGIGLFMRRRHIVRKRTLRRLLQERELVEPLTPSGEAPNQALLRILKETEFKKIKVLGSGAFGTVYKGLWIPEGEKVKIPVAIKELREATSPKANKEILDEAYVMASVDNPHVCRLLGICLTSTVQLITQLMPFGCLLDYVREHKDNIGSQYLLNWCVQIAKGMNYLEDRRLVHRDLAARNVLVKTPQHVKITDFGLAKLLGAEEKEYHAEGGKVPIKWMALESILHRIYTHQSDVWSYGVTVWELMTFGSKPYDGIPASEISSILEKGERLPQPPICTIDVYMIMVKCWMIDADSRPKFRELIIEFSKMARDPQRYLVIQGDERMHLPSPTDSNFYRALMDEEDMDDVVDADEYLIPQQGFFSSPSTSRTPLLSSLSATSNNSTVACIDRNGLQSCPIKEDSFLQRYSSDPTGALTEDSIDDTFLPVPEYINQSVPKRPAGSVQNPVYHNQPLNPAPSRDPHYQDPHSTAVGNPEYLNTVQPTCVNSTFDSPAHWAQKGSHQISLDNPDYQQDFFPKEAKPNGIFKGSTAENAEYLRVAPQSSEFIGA
Procedure, shortened: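 TR-FRET kinase assay: 0.35 nM EGFR, 150 μM ATP, 100 nM substrate, 2 h at room temperature in the dark after 5 min enzyme-compound preincubation, 1% DMSO. Compounds tested as 11-point 3-fold series, 2.5 μM to 0.042 nM final, duplicate; IC50 from 665/615 nm ratio-based inhibition.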

[3] = system: BT474 cells; test: Inhibition of cell proliferation, BT474 (CCK-8, 72 h); type: cell-based; settings: Homo sapiens, BT-474, 72 h incubation
Procedure, shortened: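 BT474 and HCC827 seeded at 10,000 and 3000 cells/well respectively, cultured overnight, then exposed to 10-point 3-fold compound dilutions (top stock 10 mM; 0.25% DMSO final) for 72 h. Viability by CCK-8, OD450; survival normalised to untreated and cell-free blanks, IC50 from curve fit.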

[4] = system: HCC827 cells; test: Inhibition of cell proliferation, HCC827 (CCK-8, 72 h); type: cell-based; settings: Homo sapiens, 72 h incubation
Description: The assay for the inhibition of cell proliferation by small molecular compounds was carried out using the method as follows:
1. 600 μL pancreatin was added to a T75 cell culture flask, which was digested in a 37° C. incubator for about 1 min before 5 mL of DMEM complete culture solution was added, blew evenly, transferred to a 15 mL centrifuge tube, and centrifuged at 1000 rpm for 4 min;
2. The supernatant was removed and 5 mL DMEM complete culture solution was added, blew evenly, and 10 μL cell suspension was taken and mixed with 10 μL 0.4% Trypan Blue, and counted using a cell counter;
3. BT474 and HCC827 cell lines were seeded in 96-well plates at a cell density of 10,000 and 3000 cells/well/80 μL, respectively, and cultured overnight. Only sterile water was added to the 36 wells on the periphery of the 96-well plate without adding cells, and only the 60 wells in the center of the 96-well plate were used for cell assays and controls;
4. Dilution of compounds: the compounds were diluted with a 3-fold dilution to make 10 concentrations in total with an initial concentration of 10 mM;
5. 20 μL of different compounds with different concentrations were added to each well, and 20 μL of complete culture solution was added to the remaining wells. The final concentration of DMSO in each well is 0.25%;
6. After 72 h of incubation, 10 μL CCK-8 reagent was added to each well, and incubated at 37° C. for 1-2 h; and the OD value was read at 450 nm;
7. Cell survival rate (%)=[(As−Ab)/(Ac−Ab)]*100%
As: Assay well (medium containing cell, CCK-8, compound)
Ac: Control well (medium containing cell, CCK-8)
Ab: Blank well (CCK-8, medium without cell and compound)
8. The value was imported into Graphpad Prism5 software for the calculation of IC50s (compound concentration at which 50% maximum survival rate is observed).

Sequence of HER2 kinase (P04626 23-1255): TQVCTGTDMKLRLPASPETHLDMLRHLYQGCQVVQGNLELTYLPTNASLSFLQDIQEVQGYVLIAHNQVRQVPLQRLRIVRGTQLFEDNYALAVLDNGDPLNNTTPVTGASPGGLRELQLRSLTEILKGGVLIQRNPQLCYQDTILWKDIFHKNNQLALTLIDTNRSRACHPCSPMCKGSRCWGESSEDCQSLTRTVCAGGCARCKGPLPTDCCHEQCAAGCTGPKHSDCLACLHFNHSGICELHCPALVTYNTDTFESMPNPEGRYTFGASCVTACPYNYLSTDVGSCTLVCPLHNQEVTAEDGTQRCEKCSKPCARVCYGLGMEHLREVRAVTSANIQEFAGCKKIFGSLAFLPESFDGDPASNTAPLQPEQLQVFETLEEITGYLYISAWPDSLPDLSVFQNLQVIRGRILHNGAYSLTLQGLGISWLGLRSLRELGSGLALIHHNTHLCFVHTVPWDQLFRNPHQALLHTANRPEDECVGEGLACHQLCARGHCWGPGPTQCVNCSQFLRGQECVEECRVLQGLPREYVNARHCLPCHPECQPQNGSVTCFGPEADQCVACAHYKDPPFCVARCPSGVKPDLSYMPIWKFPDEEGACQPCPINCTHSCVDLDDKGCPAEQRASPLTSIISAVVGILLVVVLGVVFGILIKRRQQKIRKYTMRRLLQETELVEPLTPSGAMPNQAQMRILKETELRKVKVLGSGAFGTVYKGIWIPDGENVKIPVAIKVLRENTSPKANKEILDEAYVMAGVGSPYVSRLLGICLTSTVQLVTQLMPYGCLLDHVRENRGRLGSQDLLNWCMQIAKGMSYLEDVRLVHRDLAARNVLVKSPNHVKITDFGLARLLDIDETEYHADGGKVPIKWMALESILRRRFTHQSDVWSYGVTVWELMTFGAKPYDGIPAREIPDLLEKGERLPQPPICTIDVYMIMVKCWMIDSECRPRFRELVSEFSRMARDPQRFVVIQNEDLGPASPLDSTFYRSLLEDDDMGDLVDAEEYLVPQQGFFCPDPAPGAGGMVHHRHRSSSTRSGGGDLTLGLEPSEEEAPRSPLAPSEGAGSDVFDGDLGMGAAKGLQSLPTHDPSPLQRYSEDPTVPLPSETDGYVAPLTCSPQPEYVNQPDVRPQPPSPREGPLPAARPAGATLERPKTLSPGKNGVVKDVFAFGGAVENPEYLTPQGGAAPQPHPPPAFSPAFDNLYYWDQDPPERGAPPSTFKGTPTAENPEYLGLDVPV

| IC50 [1] [nM] | IC50 [2] [nM] | IC50 [3] [nM] | IC50 [4] [nM] | SMILES |
| --- | --- | --- | --- | --- |
| ≤ 50 | ≤ 50 | ≤ 50 | 500 to 5000 | CN(C)C/C=C/C(=O)N1CCOc2c1ccc1ncnc(Nc3ccc(Oc4ccccc4)cc3)c21 [Example 44, (E)-4-(dimethylamino)-1-(10-((4-phenoxyphenyl)amino)-2,3-dihydro-4H-[1,4]oxazino[2,3-f]quinazolin-4-yl)but-2-en-1-one] |
| ≤ 50 | ≤ 50 | ≤ 50 | 50 to 500 | CN(C)C/C=C/C(=O)N1CCOc2c1ccc1ncnc(Nc3ccc(OCc4ccccn4)c(Cl)c3)c21 [Example 46, (E)-1-(10-((3-chloro-4-(pyridin-2-ylmethoxy)phenyl)amino)-2,3-dihydro-4H-[1,4]oxazino[2,3-f]quinazolin-4-yl)-4-(dimethylamino)but-2-en-1-one] |
| ≤ 50 | ≤ 50 | ≤ 50 | 500 to 5000 | Cc1cccc(Oc2ccc(Nc3ncnc4ccc5c(c34)OCCN5C(=O)/C=C/CN(C)C)cc2)c1 [Example 47, (E)-4-(dimethylamino)-1-(10-((4-(m-tolyloxy)phenyl)amino)-2,3-dihydro-4H-[1,4]oxazino[2,3-f]quinazolin-4-yl)but-2-en-1-one] |
| ≤ 50 | ≤ 50 | 50 to 500 | 500 to 5000 | CN(C)C/C=C/C(=O)N1CCOc2c1ccc1ncnc(Nc3ccc(Oc4cccc(Cl)c4)cc3)c21 [Example 48, (E)-4-(dimethylamino)-1-(10-((4-(3-chlorophenoxy)phenyl)amino)-2,3-dihydro-4H-[1,4]oxazino[2,3-f]quinazolin-4-yl)but-2-en-1-one] |
| ≤ 50 | ≤ 50 | ≤ 50 | 50 to 500 | CN(C)C/C=C/C(=O)N1CCOc2c1ccc1ncnc(Nc3ccc(Oc4cccc(F)c4)cc3)c21 [Example 49, (E)-4-(dimethylamino)-1-(10-((4-(3-fluorophenoxy)phenyl)amino)-2,3-dihydro-4H-[1,4]oxazino[2,3-f]quinazolin-4-yl)but-2-en-1-one] |
| ≤ 50 | ≤ 50 | ≤ 50 | 500 to 5000 | CN(C)C/C=C/C(=O)N1CCOc2c1ccc1ncnc(Nc3ccc(Oc4ccccc4F)cc3)c21 [Example 50, (E)-4-(dimethylamino)-1-(10-((4-(2-fluorophenoxy)phenyl)amino)-2,3-dihydro-4H-[1,4]oxazino[2,3-f]quinazolin-4-yl)but-2-en-1-one] |
| ≤ 50 | – | ≤ 50 | 500 to 5000 | COc1cccc(COc2ccc(Nc3ncnc4ccc5c(c34)OCCN5C(=O)/C=C/CN(C)C)cc2)c1 [Example 86, (E)-4-(dimethylamino)-1-(10-((4-((3-methoxybenzyl)oxy)phenyl)amino)-2,3-dihydro-4H-[1,4]oxazino[2,3-f]quinazolin-4-yl)but-2-en-1-one] |
| ≤ 50 | – | 50 to 500 | 500 to 5000 | CN(C)C/C=C/C(=O)N1CCOc2c1ccc1ncnc(Nc3ccc(OCc4ccc(Cl)cc4)cc3)c21 [Example 87, (E)-4-(dimethylamino)-1-(10-((4-((4-chlorobenzyl)oxy)phenyl)amino)-2,3-dihydro-4H-[1,4]oxazino[2,3-f]quinazolin-4-yl)but-2-en-1-one] |
| ≤ 50 | – | ≤ 50 | 500 to 5000 | Cc1ccc(COc2ccc(Nc3ncnc4ccc5c(c34)OCCN5C(=O)/C=C/CN(C)C)cc2)cc1 [Example 88, (E)-4-(dimethylamino)-1-(10-((4-((4-methylbenzyl)oxy)phenyl)amino)-2,3-dihydro-4H-[1,4]oxazino[2,3-f]quinazolin-4-yl)but-2-en-1-one] |
| ≤ 50 | – | ≤ 50 | 500 to 5000 | CN(C)C/C=C/C(=O)N1CCOc2c1ccc1ncnc(Nc3ccc(OCc4cc(F)ccc4F)cc3)c21 [Example 89, (E)-1-(10-((4-((2,5-difluorobenzyl)oxy)phenyl)amino)-2,3-dihydro-4H-[1,4]oxazino[2,3-f]quinazolin-4-yl)-4-(dimethylamino)but-2-en-1-one] |
| ≤ 50 | – | ≤ 50 | 500 to 5000 | CN(C)C/C=C/C(=O)N1CCOc2c1ccc1ncnc(Nc3ccc(OCc4cc(F)ccc4Cl)cc3)c21 [Example 90, (E)-1-(10-((4-((2-chloro-5-fluorobenzyl)oxy)phenyl)amino)-2,3-dihydro-4H-[1,4]oxazino[2,3-f]quinazolin-4-yl)-4-(dimethylamino)but-2-en-1-one] |
| ≤ 50 | – | ≤ 50 | 50 to 500 | CN(C/C=C/C(=O)N1CCOc2c1ccc1ncnc(Nc3ccc(OCc4ccccn4)c(Cl)c3)c21)C1CC1 [Example 100, (E)-1-(10-((3-chloro-4-(pyridin-2-ylmethoxy)phenyl)amino)-2,3-dihydro-4H-[1,4]oxazino[2,3-f]quinazolin-4-yl)-4-(cyclopropyl(methyl)amino)but-2-en-1-one] |
| ≤ 50 | – | ≤ 50 | 50 to 500 | CC(C)NC/C=C/C(=O)N1CCOc2c1ccc1ncnc(Nc3ccc(OCc4ccccn4)c(Cl)c3)c21 [Example 102, (E)-1-(10-((3-chloro-4-(pyridin-2-ylmethoxy)phenyl)amino)-2,3-dihydro-4H-[1,4]oxazino[2,3-f]quinazolin-4-yl)-4-(isopropylamino)but-2-en-1-one] |
| ≤ 50 | – | ≤ 50 | 50 to 500 | O=C(/C=C/CN1CCOCC1)N1CCOc2c1ccc1ncnc(Nc3ccc(OCc4ccccn4)c(Cl)c3)c21 [Example 103, (E)-1-(10-((3-chloro-4-(pyridin-2-ylmethoxy)phenyl)amino)-2,3-dihydro-4H-[1,4]oxazino[2,3-f]quinazolin-4-yl)-4-morpholinobut-2-en-1-one] |
| ≤ 50 | – | ≤ 50 | 50 to 500 | O=C(/C=C/CNC1CCC1)N1CCOc2c1ccc1ncnc(Nc3ccc(OCc4ccccn4)c(Cl)c3)c21 [Example 109, (E)-1-(10-((3-chloro-4-(pyridin-2-ylmethoxy)phenyl)amino)-2,3-dihydro-4H-[1,4]oxazino[2,3-f]quinazolin-4-yl)-4-(cyclobutylamino)but-2-en-1-one] |
| ≤ 50 | – | ≤ 50 | 50 to 500 | CN1CCC[C@H]1/C=C/C(=O)N1CCOc2c1ccc1ncnc(Nc3ccc(OCc4ccccn4)c(Cl)c3)c21 [Example 112, (S,E)-1-(10-((3-chloro-4-(pyridin-2-ylmethoxy)phenyl)amino)-2,3-dihydro-4H-[1,4]oxazino[2,3-f]quinazolin-4-yl)-3-(1-methylpyrrolidin-2-yl)prop-2-en-1-one] |
| ≤ 50 | – | 50 to 500 | 500 to 5000 | CC#CC(=O)N1CCOc2c1ccc1ncnc(Nc3ccc(OCc4ccccn4)c(Cl)c3)c21 [Example 113, 1-(10-((3-chloro-4-(pyridin-2-ylmethoxy)phenyl)amino)-2,3-dihydro-4H-[1,4]oxazino[2,3-f]quinazolin-4-yl)but-2-yne-1-one] |
| ≤ 50 | – | ≤ 50 | 50 to 500 | CC1(O)CCN(C/C=C/C(=O)N2CCOc3c2ccc2ncnc(Nc4ccc(OCc5ccccn5)c(Cl)c4)c32)CC1 [Example 116, (E)-1-(10-((3-chloro-4-(pyridin-2-ylmethoxy)phenyl)amino)-2,3-dihydro-4H-[1,4]oxazino[2,3-f]quinazolin-4-yl)-4-(4-hydroxyl-4-methylpiperidin-1-yl)but-2-en-1-one] |
| ≤ 50 | – | ≤ 50 | 50 to 500 | COCCN(C)C/C=C/C(=O)N1CCOc2c1ccc1ncnc(Nc3ccc(OCc4ccccn4)c(Cl)c3)c21 [Example 119, (E)-1-(10-((3-chloro-4-(pyridin-2-ylmethoxy)phenyl)amino)-2,3-dihydro-4H-[1,4]oxazino[2,3-f]quinazolin-4-yl)-4-((2-methoxyethyl)(methyl)amino)but-2-en-1-one] |
